This is an account of results in patent US20240208992A1, “MACROCYCLES AS CFTR MODULATORS” (Idorsia Pharmaceuticals Ltd, priority 2021, published 2024).

The test deals with human F508del-CFTR (Homo sapiens, UniProt P13569, DEL508-508). The experiment in a line: F508del-CFTR cell surface expression (corrector activity), DiscoveRx ß-galactosidase complementation chemiluminescence assay in recombinant U2OS cell line.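 On all read-outs here: U2OS cells co-expressing ProLink-tagged F508del-CFTR and a membrane-anchored enzyme acceptor, where more surface CFTR restores β-galactosidase activity measured by chemiluminescence.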 To be noted: for Emax: U2OS.
human F508del-CFTR, sequence (P13569 with tags, fused parts or gaps DEL508-508): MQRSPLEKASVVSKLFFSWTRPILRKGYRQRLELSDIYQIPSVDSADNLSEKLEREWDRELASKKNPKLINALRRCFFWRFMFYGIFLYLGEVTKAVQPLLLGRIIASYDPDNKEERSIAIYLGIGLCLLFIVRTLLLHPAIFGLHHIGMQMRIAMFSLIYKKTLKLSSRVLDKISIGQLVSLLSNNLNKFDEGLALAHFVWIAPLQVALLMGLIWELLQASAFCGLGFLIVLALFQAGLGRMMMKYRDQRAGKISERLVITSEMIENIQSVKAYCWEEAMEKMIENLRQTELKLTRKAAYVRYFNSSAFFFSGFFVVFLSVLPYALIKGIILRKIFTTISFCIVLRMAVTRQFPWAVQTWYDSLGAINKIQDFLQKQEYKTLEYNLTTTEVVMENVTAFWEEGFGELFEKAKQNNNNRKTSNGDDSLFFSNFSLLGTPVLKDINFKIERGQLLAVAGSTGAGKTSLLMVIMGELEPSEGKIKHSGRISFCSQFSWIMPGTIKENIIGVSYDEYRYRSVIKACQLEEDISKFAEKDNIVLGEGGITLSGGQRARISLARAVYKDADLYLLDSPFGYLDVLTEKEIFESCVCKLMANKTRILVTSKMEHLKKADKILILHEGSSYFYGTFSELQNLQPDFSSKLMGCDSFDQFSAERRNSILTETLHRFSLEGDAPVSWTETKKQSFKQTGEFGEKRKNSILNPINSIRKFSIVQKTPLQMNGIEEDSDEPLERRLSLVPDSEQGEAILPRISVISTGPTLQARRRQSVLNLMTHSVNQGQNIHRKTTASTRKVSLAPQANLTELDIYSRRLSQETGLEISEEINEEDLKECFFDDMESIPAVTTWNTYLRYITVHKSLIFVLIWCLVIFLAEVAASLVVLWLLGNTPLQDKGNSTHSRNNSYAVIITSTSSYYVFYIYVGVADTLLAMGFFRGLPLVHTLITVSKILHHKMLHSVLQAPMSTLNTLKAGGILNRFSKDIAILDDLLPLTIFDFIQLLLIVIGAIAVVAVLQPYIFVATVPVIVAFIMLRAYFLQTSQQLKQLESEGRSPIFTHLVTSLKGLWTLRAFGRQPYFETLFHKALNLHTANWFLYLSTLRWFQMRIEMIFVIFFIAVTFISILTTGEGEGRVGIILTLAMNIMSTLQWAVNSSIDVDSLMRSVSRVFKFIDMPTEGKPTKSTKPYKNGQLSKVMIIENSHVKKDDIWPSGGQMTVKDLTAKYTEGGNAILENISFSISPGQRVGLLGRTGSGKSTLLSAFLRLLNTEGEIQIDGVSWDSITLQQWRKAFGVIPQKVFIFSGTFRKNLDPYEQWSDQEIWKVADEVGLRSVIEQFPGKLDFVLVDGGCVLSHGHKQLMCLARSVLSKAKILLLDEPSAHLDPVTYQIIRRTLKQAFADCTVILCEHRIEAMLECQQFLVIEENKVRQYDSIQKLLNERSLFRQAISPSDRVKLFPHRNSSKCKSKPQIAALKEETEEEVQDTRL
[1] abbreviates: EC50, F508del-CFTR cell surface expression, U2OS cell line, 16h compound incubation, geomean values.
Setting [2] is: in relation to the Emax of the corrector lumacaftor (=100%), U2OS cell line, 16h compound incubation, arithmetic mean values.

`CC(C)C[C@H]1C(=O)N2CC[C@H](c3ccccc3)C[C@H]2C(=O)N[C@H](Cc2ccccc2)COc2cnc3ccccc3c2C(=O)N[C@H](C(=O)NCCc2cc(C3CC3)no2)CC(=O)N1C` (single isomer, unassigned) [Example 674]: the EC50 (EC50, F508del-CFTR cell surface expression, U2OS cells, 16h compound incubation, geomean values) stood at 262 nM. Further, the Emax (in relation to Emax of corrector lumacaftor (=100%), arithmetic mean values) was determined as 133%.
Regarding `COc1cc(CCNC(=O)[C@@H]2CC(=O)N(C)[C@@H](CC(C)C)C(=O)N3CCCC[C@@H]3C(=O)N[C@H](Cc3ccccc3)COc3ccc4ncc(F)cc4c3C(=O)N2)on1` (single isomer, unassigned) [Example 899], under “EC50, F508del-CFTR cell surface expression, U2OS cells, 16h compound incubation, geomean of several measurements”, the EC50 came to 819 nM. Moreover, the maximal response (Emax) (in relation to the Emax of the corrector lumacaftor (=100%), U2OS cells, 16h compound incubation, arithmetic mean) is 294%.
With `CCC(=O)CCCCC[C@@H]1NC(=O)[C@H]2CCCCN2C(=O)[C@H]([C@@H](C)CC)NC(=O)[C@H](Cc2cn(OC)c3ccccc23)NC1=O` [Apicidin, reference compound], under “EC50, recombinant U2OS cell line (DiscoveRx) expressing PK-tagged human F508del-CFTR, 16h compound incubation, same conditions as example compounds”, the EC50 is greater than 20000 nM.
Take `CC(C)C[C@H]1C(=O)N(CCC2CCCCC2)CC(=O)N[C@H](Cc2ccccc2)COc2cc3c(cc2C(=O)N[C@H](C(=O)NCCc2ccc4c(c2)OCO4)CC(=O)N1C)OCO3` [Example 2, (7R,13S,17S)-N-(2-(benzo[d][1,3]dioxol-5-yl)ethyl)-7-benzyl-11-(2-cyclohexylethyl)-13-isobutyl-14-methyl-9,12,15,19-tetraoxo-6,7,8,9,10,11,12,13,14,15,16,17,18,19-tetradecahydro-[1,3]dioxolo[4′,5′:4,5]benzo[1,2-p][1]oxa[4,7,10,14]tetraazacycloheptadecine-17-carboxamide]: the concentration for a half-maximal effect (EC50) under setting [1] amounted to 110 nM. The maximum response (Emax) under setting [2] came out at 150%.
Take `COc1cc2c(cc1OC)C(=O)N[C@H](C(=O)NCCc1ccc3c(c1)CCCO3)CC(=O)N(C)[C@@H](CC(C)C)C(=O)N(C)CC(=O)N[C@H](Cc1ccccc1)CO2` [Example 3, (3R,9S,13S)-3-benzyl-N-(2-(chroman-6-yl)ethyl)-9-isobutyl-17,18-dimethoxy-7,10-dimethyl-5,8,11,15-tetraoxo-2,3,4,5,6,7,8,9,10,11,12,13,14,15-tetradecahydrobenzo[p][1]oxa[4,7,10,14]tetraazacycloheptadecine-13-carboxamide]: the EC50 under setting [1] turned out to be 816 nM. In addition, the Emax under setting [2] was 151%.
On to `COc1cc2c(cc1OC)C(=O)N[C@H](C(=O)NCCc1ccc3ccoc3c1)CC(=O)N(C)[C@@H](CC(C)C)C(=O)N(C)CC(=O)N[C@H](Cc1ccccc1)CO2` [Example 4, (3R,9S,13S)-N-(2-(benzofuran-6-yl)ethyl)-3-benzyl-9-isobutyl-17,18-dimethoxy-7,10-dimethyl-5,8,11,15-tetraoxo-2,3,4,5,6,7,8,9,10,11,12,13,14,15-tetradecahydrobenzo[p][1]oxa[4,7,10,14]tetraazacycloheptadecine-13-carboxamide], for which, under setting [1], the 50% effective concentration (EC50) was determined as 673 nM. Besides, under setting [2], the Emax stood at 195%.
For the compound `CN1CC(=O)N[C@H](Cc2ccccc2)COc2cc3c(cc2C(=O)N[C@H](C(=O)NCCc2ccc4c(c2)OCO4)CC(=O)N(C)[C@@H](CC2CCC2)C1=O)OCO3` [Example 7, (7R,13S,17S)-N-(2-(benzo[d][1,3]dioxol-5-yl)ethyl)-7-benzyl-13-(cyclobutylmethyl)-11,14-dimethyl-9,12,15,19-tetraoxo-6,7,8,9,10,11,12,13,14,15,16,17,18,19-tetradecahydro-[1,3]dioxolo[4′,5′:4,5]benzo[1,2-p][1]oxa[4,7,10,14]tetraazacycloheptadecine-17-carboxamide], the concentration giving a half-maximal response (EC50) under setting [1] is 398 nM. In addition, under setting [2], the maximal effect (Emax) was determined as 118%.
On the same counts, the results for `COc1cc2c(cc1OC)C(=O)N[C@H](C(=O)NCCc1ccc3c(c1)OCCN3C)CC(=O)N(C)[C@@H](CC(C)C)C(=O)N(C)CC(=O)N[C@H](Cc1ccccc1)CO2` [Example 8, (3R,9S,13S)-3-benzyl-9-isobutyl-17,18-dimethoxy-7,10-dimethyl-N-(2-(4-methyl-3,4-dihydro-2H-benzo[b][1,4]oxazin-7-yl)ethyl)-5,8,11,15-tetraoxo-2,3,4,5,6,7,8,9,10,11,12,13,14,15-tetradecahydrobenzo[p][1]oxa[4,7,10,14]tetraazacycloheptadecine-13-carboxamide] are 887 nM and 210%.
As to `COc1cccc(CCNC(=O)[C@@H]2CC(=O)N(C)[C@@H](CC(C)C)C(=O)N3CCCC[C@@H]3C(=O)N[C@H](Cc3ccccc3)COc3ccc4ncn(C)c4c3C(=O)N2)c1` [Example 17, (8S,12S,18aR,21R)-21-benzyl-12-isobutyl-N-(3-methoxyphenethyl)-5,11-dimethyl-6,10,13,19-tetraoxo-6,7,8,9,10,11,12,13,16,17,18,18a,19,20,21,22-hexadecahydro-5H,15H-imidazo[4′,5′:5,6]benzo[1,2-p]pyrido[2,1-f][1]oxa[4,7,10,14]tetraazacycloheptadecine-8-carboxamide], the EC50 under setting [1] came to 466 nM. Besides, the Emax under setting [2] stood at 180%.
On the same counts, the results for `COc1cccc2c1C(=O)N[C@H](C(=O)NCCc1cnccn1)CC(=O)N(C)[C@@H](CC(C)C)C(=O)N(CCC1CCCCC1)CC(=O)N[C@H](Cc1ccccc1)CO2` [Example 18, (3R,9S,13S)-3-benzyl-7-(2-cyclohexylethyl)-9-isobutyl-16-methoxy-10-methyl-5,8,11,15-tetraoxo-N-(2-(pyrazin-2-yl)ethyl)-2,3,4,5,6,7,8,9,10,11,12,13,14,15-tetradecahydrobenzo[p][1]oxa[4,7,10,14]tetraazacycloheptadecine-13-carboxamide] are 388 nM and 117%.
In the same order, the values of `COc1cccc2c1C(=O)N[C@H](C(=O)NCCc1ccncn1)CC(=O)N(C)[C@@H](CC(C)C)C(=O)N(CCC1CCCCC1)CC(=O)N[C@H](Cc1ccccc1)CO2` [Example 19, (3R,9S,13S)-3-benzyl-7-(2-cyclohexylethyl)-9-isobutyl-16-methoxy-10-methyl-5,8,11,15-tetraoxo-N-(2-(pyrimidin-4-yl)ethyl)-2,3,4,5,6,7,8,9,10,11,12,13,14,15-tetradecahydrobenzo[p][1]oxa[4,7,10,14]tetraazacycloheptadecine-13-carboxamide] are 743 nM and 125%.
In the same order, the values of `COc1cccc2c1C(=O)N[C@H](C(=O)NCCc1cncnc1)CC(=O)N(C)[C@@H](CC(C)C)C(=O)N(CCC1CCCCC1)CC(=O)N[C@H](Cc1ccccc1)CO2` [Example 20, (3R,9S,13S)-3-benzyl-7-(2-cyclohexylethyl)-9-isobutyl-16-methoxy-10-methyl-5,8,11,15-tetraoxo-N-(2-(pyrimidin-5-yl)ethyl)-2,3,4,5,6,7,8,9,10,11,12,13,14,15-tetradecahydrobenzo[p][1]oxa[4,7,10,14]tetraazacycloheptadecine-13-carboxamide] are 721 nM and 102%.
In the case of `COc1cccc2c1C(=O)N[C@H](C(=O)NCCCOC(F)F)CC(=O)N(C)[C@@H](CC(C)C)C(=O)N(CCC1CCCCC1)CC(=O)N[C@H](Cc1ccccc1)CO2` [Example 21, (3R,9S,13S)-3-benzyl-7-(2-cyclohexylethyl)-N-(3-(difluoromethoxy)propyl)-9-isobutyl-16-methoxy-10-methyl-5,8,11,15-tetraoxo-2,3,4,5,6,7,8,9,10,11,12,13,14,15-tetradecahydrobenzo[p][1]oxa[4,7,10,14]tetraazacycloheptadecine-13-carboxamide], under setting [1], the EC50 is 350 nM. Also, the Emax under setting [2] amounted to 108%.
For the compound `COCCOCCNC(=O)[C@@H]1CC(=O)N(C)[C@@H](CC(C)C)C(=O)N(CCC2CCCCC2)CC(=O)N[C@H](Cc2ccccc2)COc2cccc(OC)c2C(=O)N1` [Example 22, (3R,9S,13S)-3-benzyl-7-(2-cyclohexylethyl)-9-isobutyl-16-methoxy-N-(2-(2-methoxyethoxy)ethyl)-10-methyl-5,8,11,15-tetraoxo-2,3,4,5,6,7,8,9,10,11,12,13,14,15-tetradecahydrobenzo[p][1]oxa[4,7,10,14]tetraazacycloheptadecine-13-carboxamide], under setting [1], the EC50 came to 600 nM. The Emax under setting [2] stood at 104%.
On the same counts, the results for `CC(C)C[C@H]1C(=O)N2CCCC[C@@H]2C(=O)N[C@H](Cc2ccccc2)COc2ccc3ncn(C)c3c2C(=O)N[C@H](C(=O)NCCc2nc3c(s2)CCC3)CC(=O)N1C` [Example 29, (8S,12S,18aR,21R)-21-benzyl-N-(2-(5,6-dihydro-4H-cyclopenta[d]thiazol-2-yl)ethyl)-12-isobutyl-5,11-dimethyl-6,10,13,19-tetraoxo-6,7,8,9,10,11,12,13,16,17,18,18a,19,20,21,22-hexadecahydro-5H,15H-imidazo[4′,5′:5,6]benzo[1,2-p]pyrido[2,1-f][1]oxa[4,7,10,14]tetraazacycloheptadecine-8-carboxamide] are 439 nM and 140%.
On to `CC(C)C[C@H]1C(=O)N2CCCC[C@@H]2C(=O)N[C@H](Cc2ccccc2)COc2ccc3ncn(C)c3c2C(=O)N[C@H](C(=O)NCCc2noc3ccccc23)CC(=O)N1C` [Example 30, (8S,12S,18aR,21R)-N-(2-(benzo[d]isoxazol-3-yl)ethyl)-21-benzyl-12-isobutyl-5,11-dimethyl-6,10,13,19-tetraoxo-6,7,8,9,10,11,12,13,16,17,18,18a,19,20,21,22-hexadecahydro-5H,15H-imidazo[4′,5′:5,6]benzo[1,2-p]pyrido[2,1-f][1]oxa[4,7,10,14]tetraazacycloheptadecine-8-carboxamide], for which the EC50 under setting [1] is 275 nM. Also, the maximal effect (Emax) under setting [2] worked out at 113%.
